Ten compounds from patent US9227971B2, “Pyrazolo[1,5-a]pyrimidine compounds as mTOR inhibitors” (Merck Sharp & Dohme Corp., priority 2010, dated 2016) can be followed below.

For assay [1], the target named is human mTOR enzyme (Homo sapiens, UniProt P42345). Kind of assay: mTOR kinase assay (HTRF mTOR enzyme assay). It counts as biochemical. The following applies: 5 μM ATP, 0.2 μM GST-S6K, one hour at 30° C. The procedure:
An HTRF mTOR enzyme assay was developed to assess the compounds' inhibitory activity. The mTOR assay buffer contained 10 mM Hepes (pH 7.4), 50 mM NaCl, 100 μg/ml BSA, 50 mM B-glycerophosphate, 10 mM MnCl2 and 0.5 mM DTT. […] 20 ng of human mTOR enzyme (<5% pure was preincubated with the compound for 10 minutes followed by the addition of 5 μM ATP and 0.2 μM GST-S6K (Zhang et al., Protein Expression and Purification 46, pp 414-420 (2006)). The reaction was incubated for one hour at 30° C. Anti phospho p70-S6K(Thr389) (˜1.7 ng/well, anti-phospho-p70S6K-cryptate (Pho-p70S6-Kin-K cat#64CUSKAY, from Cisbio)) and anti GST-XL665 (1:1 Ratio with the substrate GST-S6K, anti GST-XL665, cat#61 GSTXLB) Cisbio) were added after the reaction was stopped. The plates were read (PHERAstar, BMG) at least 2 hours after adding the anti phospho p70-S6K and the anti GST-XL665.
Dose-response curves were plotted from the inhibition data generated, each in duplicate, from 8 point serial dilutions of inhibitory compounds. Concentration of compound was plotted against the HTRF em665/em590 ratio signal. To generate IC50 values, the dose-response curves were fitted to a standard sigmoidal curve and IC50 values were derived by nonlinear regression analysis.
Background: In TR-FRET formats the signal depends on donor and acceptor labels being close together.

Assay [2] has as its system phosphorylated 4E-BP1 Thr37/46 (p4E-BP1 Thr37/46), mTORC1 activity, PC3 cells. Kind of assay: mTOR target engagement assay, immunofluorescent cell-based, p4E-BP1 Thr37/46 readout (mTORC1 activity). The following applies: Homo sapiens. Summed up:
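Cell-based immunofluorescence in PC3 cells: serially diluted compounds (0.25% DMSO, 5% FBS) applied for ninety minutes at 37° C before fixation and overnight 4° C staining of p4E-BP1 Thr37/46. Untreated DMSO wells set maximal phosphorylation; IC50 obtained by logistic fitting.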

Assay [3] deals with phosphorylated AKT Ser473 (pAKT S473), mTORC2 activity, PC3 cells. Kind of assay: mTOR target engagement assay, immunofluorescent cell-based, pAKT S473 readout (mTORC2 activity). The following applies: Homo sapiens. In outline:
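After blocking, cells were stained overnight at 4 °C with anti-pAKT S473 antibody, then a fluorescent secondary; inhibition was read as reduced fluorescence intensity.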

[4] abbreviates: PC-3, Table 3-1, PC3 cells, read-out: p4E-BP1 Thr37/46 IC50.

Where two headings read alike, the source gives them in different places.

human mTOR enzyme, sequence (P42345 1360-2549 limits assumed): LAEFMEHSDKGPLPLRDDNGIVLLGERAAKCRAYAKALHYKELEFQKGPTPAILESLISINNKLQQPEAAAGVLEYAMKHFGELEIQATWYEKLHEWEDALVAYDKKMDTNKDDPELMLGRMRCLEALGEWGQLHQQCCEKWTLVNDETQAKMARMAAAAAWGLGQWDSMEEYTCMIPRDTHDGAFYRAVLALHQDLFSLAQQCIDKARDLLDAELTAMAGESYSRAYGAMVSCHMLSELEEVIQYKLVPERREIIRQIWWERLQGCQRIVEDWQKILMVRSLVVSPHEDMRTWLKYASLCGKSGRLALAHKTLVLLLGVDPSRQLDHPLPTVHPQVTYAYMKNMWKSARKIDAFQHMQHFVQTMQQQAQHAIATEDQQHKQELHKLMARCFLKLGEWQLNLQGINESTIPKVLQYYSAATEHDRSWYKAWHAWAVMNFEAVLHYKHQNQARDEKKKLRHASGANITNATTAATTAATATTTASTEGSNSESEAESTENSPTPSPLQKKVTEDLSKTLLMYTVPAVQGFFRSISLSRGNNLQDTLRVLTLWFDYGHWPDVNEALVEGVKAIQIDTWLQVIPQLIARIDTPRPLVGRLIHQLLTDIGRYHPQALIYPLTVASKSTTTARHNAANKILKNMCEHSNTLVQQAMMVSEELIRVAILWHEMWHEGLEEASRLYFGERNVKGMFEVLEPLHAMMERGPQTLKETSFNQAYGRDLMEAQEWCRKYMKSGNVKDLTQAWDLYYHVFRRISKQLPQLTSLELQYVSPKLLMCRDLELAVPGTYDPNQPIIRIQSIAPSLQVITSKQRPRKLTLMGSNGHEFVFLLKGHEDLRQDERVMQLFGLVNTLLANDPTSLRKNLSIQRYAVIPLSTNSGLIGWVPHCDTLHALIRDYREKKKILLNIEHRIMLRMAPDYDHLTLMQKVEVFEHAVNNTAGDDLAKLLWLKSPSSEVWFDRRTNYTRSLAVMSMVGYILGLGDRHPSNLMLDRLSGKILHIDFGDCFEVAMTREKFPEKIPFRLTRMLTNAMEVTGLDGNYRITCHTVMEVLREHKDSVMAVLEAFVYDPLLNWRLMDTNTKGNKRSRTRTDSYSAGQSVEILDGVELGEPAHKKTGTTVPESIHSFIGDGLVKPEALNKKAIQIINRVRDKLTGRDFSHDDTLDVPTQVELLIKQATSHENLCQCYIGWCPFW

Compound `CC(=O)c1c(N2CC3CCC2CN3C(=O)[C@@H](C)O)nc2c(-c3ccc(-c4ccccc4)nc3)cnn2c1N` (stereo partly drawn) [Compound 47] registered an IC50 in assay [1] of 10 to 25 nM. Still for that read-out and setting: the figure for `CC(=O)c1c(N2C3CCC2CN(C(=O)[C@@H](C)O)C3)nc2c(-c3ccc(-c4ccccc4)nc3)cnn2c1N` [Compound 50] is 10 to 25 nM.

For the compound `CC(=O)c1c([C@@H]2C[C@H]3CC[C@@H](C2)N3C(=O)c2nnc[nH]2)nc2c(-c3ccc(-c4nn(C)cc4F)nc3)cnn2c1N` [Compound 1.1.93, 1-(5-((1R,3s,5S)-8-(4H-1,2,4-triazole-3-carbonyl)-8-azabicyclo[3.2.1]octan-3-yl)-7-amino-3-(6-(4-fluoro-1-methyl-1H-pyrazol-3-yl)pyridin-3-yl)pyrazolo[1,5-a]pyrimidin-6-yl)ethanone], the IC50 was found to be 2.3 nM in assay [1]; 3880 nM in assay [2] (PC-3, PC3 cells, given as a number, no unit, read-out: p4E-1 Thr37/46 IC50); 4070 nM in assay [3] (PC-3, PC3 cells, given as a number, no unit). Compound `Nc1cc([C@@H]2C[C@H]3CC[C@@H](C2)N3)nc2c(-c3cc[nH]c(=O)c3)cnn12` [Example 8B, 4-{7-Amino-5-[(3-exo)-8-azabicyclo[3.2.1]oct-3-yl]pyrazolo[1,5-a]pyrimidin-3-yl}pyridin-2(1H)-one] gave an IC50 in assay [1] of 489 nM.

In the case of `CC(=O)c1c(N2C3CCC2CN(C(=O)CO)C3)nc2c(-c3ccc(-c4ccccc4)nc3)cnn2c1N` [Compound 49], the IC50 in assay [1] was in the range of 1 to 10 nM. Same read-out and setting: the same measure for `Nc1c(F)c([C@@H]2C[C@H]3CC[C@@H](C2)N3C(=O)CO)nc2c(-c3ccc(-c4ncc[nH]4)nc3)cnn12` [Example 8A, 1-[(3-Exo)-3-{7-amino-6-fluoro-3-[6-(1H-imidazol-2-yl)pyridin-3-yl]pyrazolo[1,5-a]pyrimidin-5-yl}-8-azabicyclo[3.2.1]oct-8-yl]-2-hydroxyethanone]: 2 nM.

`CC(=O)c1c(N2CC3CCC2CN3C(=O)c2nnc[nH]2)nc2c(-c3ccc(-c4ccccc4)nc3)cnn2c1N` (stereo not drawn) [Compound 48] registered an IC50 in assay [1] of 1 to 10 nM. For the compound `COc1ccc(-c2ccc(-c3cnn4c(N)cc([C@@H]5C[C@H]6CC[C@@H](C5)N6C(=O)c5nnc[nH]5)nc34)cn2)cc1CO` [Compound 2.6, ((1R,3s,5S)-3-(7-amino-3-(6-(3-(hydroxymethyl)-4-methoxyphenyl)pyridin-3-yl)pyrazolo[1,5-a]pyrimidin-5-yl)-8-azabicyclo[3.2.1]octan-8-yl)(4H-1,2,4-triazol-3-yl)methanone], the IC50 lay within 100 to 1000 nM in assay [2] (PC-3, PC3 cells, compound treatment ninety minutes at 37° C., read-out: p4E-BP1 Thr37/46 IC50) and 100 to 1000 nM in assay [3] (PC-3, PC3 cells, compound treatment ninety minutes at 37° C.). `CS(=O)(=O)c1c(C2CC3CCC(C2)N3C(=O)c2nnc[nH]2)nc2c(-c3ccc(-c4ccccc4)[n+]([O-])c3)cnn2c1N` [Compound 3.6, 5-(5-((1R,3s,5S)-8-(1H-1,2,4-triazole-3-carbonyl)-8-azabicyclo[3.2.1]octan-3-yl)-7-amino-6-(methylsulfonyl)pyrazolo[1,5-a]pyrimidin-3-yl)-2-phenylpyridine 1-oxide]: the IC50 in assay [2] (setting [4]) lay in the range of 100 to 1000 nM; in assay [3] (PC-3, Table 3-1, PC3 cells) it was 100 to 1000 nM. `CS(=O)(=O)c1c([C@@H]2C[C@H]3CC[C@@H](C2)N3C(=O)c2nnc[nH]2)nc2c(-c3ccc(-c4ccc(F)cc4)nc3)cnn2c1N` [Compound 3.105, ((1R,3s,5S)-3-(7-amino-3-(6-(4-fluorophenyl)pyridin-3-yl)-6-(methylsulfonyl)pyrazolo[1,5-a]pyrimidin-5-yl)-8-azabicyclo[3.2.1]octan-8-yl)(4H-1,2,4-triazol-3-yl)methanone]: the IC50 lay within 1 to 100 nM in assay [2] (setting [4]) and 1 to 100 nM in assay [3] (PC-3, Table 3-1, PC3 cells).
